Data from patent publication US20070048231A1, “Pheromone compositions and methods” (priority 2005, published 2007).

Tests used:
[1] = test system: exercise strength and stamina; assay: Inhalation exposure of the inventor to androstenone released from a polyethylene bag: exercise strength and stamina; format: in vivo; conditions: human (inventor), after about five to seven days of exposure
From the text: (§1) For example, increased strength was evidenced by an at least 5-10%, and more typically 10-20% increase of weight that was lifted as compared to the same exercise before exposure to the pheromone.
With respect to the effects afforded by contemplated compositions and devices, it is generally contemplated that the steroid pheromones will exert both a desirable behavioral effect as well as a desirable non-behavioral effect. […] The term “exercise strength” as used herein refers to an ability to lift a particular weight in a given exercise routine (e.g., lifting of 100 pounds on a bench press). Thus, where exercise strength is increased, heavier weights can be lifted. Most typically the increase in exercise strength is between 5 and 40%, and more typically between 10 and 25%. […] The term “exercise stamina” as used herein refers to an ability to lift a particular weight in a given exercise routine for a maximum of repeats Rmax (e.g., lifting of 100 pounds on a bench press ten times). Thus, where exercise stamina is increased, the weight can be lifted more that Rmax times. Most typically the increase in exercise strength is between 5 and 30%, and more typically between 10 and 20%.

sinusitis = assay: Inhalation exposure of the inventor to androstenone released from a polyethylene bag: sinusitis signs and symptoms; format: in vivo; conditions: human (inventor); about 500 mg in polyethylene bag; about five to seven days of exposure, two to eight hours per day
From the text: as §1
Therefore, it is also contemplated that the compositions and methods presented herein may present a convenient matter to treat and/or alleviate signs and symptoms of airway inflammation. Most preferably, such inflammation may be sinusitis, asthma, and allergic airway inflammation. In yet other contemplated aspects, additional behavioral effects may be advantageously conferred by use of contemplated compositions and methods, especially including feeling of increased energy, sexual desire, and self-confidence.

C[C@]12CCC(=O)C[C@@H]1CC[C@@H]1[C@@H]2CC[C@]2(C)C=CC[C@@H]12 [androstenone, 5α-androst-16-en-3-one]
increase of weight that was lifted as compared to the same exercise before exposure (exercise strength) ([1]; 'at least'): 5-10%
increase of weight that was lifted as compared to the same exercise before exposure (exercise strength) ([1]; 'more typically'): 10-20%
increase in number of repeats per exercise (exercise stamina) ([1]; 'most typically'): 5-20%
signs and symptoms of a previously diagnosed sinusitis (sinusitis): all signs and symptoms of a previously diagnosed sinusitis had disappeared
